Source: patent US20230174473A1, “ANTIMICROBIAL AND ANTIVIRAL SULFUR CONTAINING GLYCEROL MONOESTER DERIVATIVES” (priority 2020, published 2023)
≈ marks a conversion by molar mass, not a printed value.

Experiments:
[1] = system: Listeria monocytogenes; conditions: Gram Positive; Aerobe; 1 strain tested; cited from earlier work
[2] = system: Group G Streptococcus; conditions: Gram Positive; Aerotolerant Anaerobe; 1 strain tested; cited from earlier work
[3] = system: other Gram-positive bacteria and Gram-negative bacteria with an incomplete lipopolysaccharide; test: Killing of other bacteria by GML; assay type: cell-based; conditions: other Gram-positive bacteria and Gram-negative bacteria with lipo-oligosaccharide
[4] = system: Escherichia coli (e. coli); conditions: Welch et al., mBio 2020; cited from earlier work
[5] = system: Pseudomonas aeruginosa; conditions: Gram Negative; Aerobe; 1 strain tested; cited from earlier work
[6] = system: Bacillus anthracis Sterne; conditions: Gram Positive; Aerobe; 1 strain tested; cited from earlier work
[7] = system: Mycobacterium tuberculosis; conditions: Acid Fast; Aerobe; 1 strain tested; cited from earlier work
[8] = system: Group F Streptococcus; conditions: Gram Positive; Aerotolerant Anaerobe; 1 strain tested; cited from earlier work
[9] = system: glycerol ester hydrolase (lipase); test: Lipase production by S. aureus in presence of GML; assay type: cell-based, Staphylococcus aureus; conditions: S. aureus strains
[10] = system: Escherichia coli; test: MIC and MBC test with E. coli; assay type: cell-based
Protocol: The conditions for this test were the same as in the above example with S. aureus MN8. The E. coli strain was a laboratory strain from a patient with a confirmed urinary tract infection. The strain is maintained in the laboratory at -80° C.

[11] = system: Bacteroides fragilis; conditions: Gram Negative; Anaerobe; 2 strains tested; cited from earlier work
[12] = system: Enterococcus faecalis; conditions: Gram Positive; Aerotolerant Anaerobe; 1 strain tested; cited from earlier work
[13] = system: Fusobacterium species; conditions: Gram Negative; Anaerobe; 1 strain tested; cited from earlier work
[14] = system: Bordetella bronchiseptica; conditions: Gram Negative; Aerobe; 1 strain tested; cited from earlier work

With CCCCCCCCCCCC(=O)OCC(O)CO (stereo not drawn) [GML, glycerol monolaureate] as the compound, how does the “Average Bactericidal Concentration” value [1] read?
The value was 50 mg/mL.

What about the “Average Bactericidal Concentration” value [2] of the same compound?
The value was 50 mg/mL.

And the concentrations that kill [3]?
The concentrations that kill was 25 to 50 µg/mL.

And the “effectiveness against Escherichia coli” value [4]?
The value was “not effective”.

What about the “Average Bactericidal Concentration” value [5] of the same compound?
The value was “Not Susceptible”.

And the “Average Bactericidal Concentration” value [6]?
The value was 50 mg/mL.

What about the “Average Bactericidal Concentration” value [7] of the same compound?
Its value is 100 mg/mL.

And the “Average Bactericidal Concentration” value [8]?
Its value is 20 mg/mL.

And the “GML concentration at which lipase cannot be produced” value [9]?
The value was “about 300 µg/ml”.

What about the “Mininum Bactericidal Concentration” value ([10]; E. coli laboratory strain from a patient with urinary tract infection, same conditions as S. aureus MN8) of the same compound?
The value was 500 µg/mL.

What about the MIC ([10]; Escherichia coli, read-out: Minimum Inhibitory Concentration) of the same compound?
The MIC was 500 µg/mL (≈ 1820 µM).

What about the “Average Bactericidal Concentration” value [11] of the same compound?
The value was 50 mg/mL.

What about the “Average Bactericidal Concentration” value [12] of the same compound?
The value was 100 mg/mL.

And the “Average Bactericidal Concentration” value [13]?
The value was 50 mg/mL.

And the “Average Bactericidal Concentration” value [14]?
The value was 1 mg/mL.
